Reference: US8791050B2, “Herbicidal compositions” (priority 1998, dated 2014)

What was measured:
Type in all cases: in vivo
[1] = tested on: rice; assay: Selectivity: damage to rice, greenhouse trial; conditions: scoring 20 days after application
[2] = tested on: Sagittaria pygmaea (SAGPY); assay: Herbicidal effect in rice, greenhouse trial, Sagittaria pygmaea; conditions: Table 5 greenhouse trial, post-emergence 1-2-leaf stage, scoring 20 days after application
Method: (§1) The herbicidal efficacy of the active compounds or active compound mixtures was scored visually using the treated plots in comparison to untreated control plots. The damage and development of all above-ground parts of the plants were recorded. Scoring was carried out using a percentage scale (100% effect=all plants killed; 50% effect=50% of the plants and the green parts of the plants killed; 0% effect=no noticeable effect=like control plot). The scores of in each case 4 plots were averaged.
(§2) If the observed activity values already exceed the formal sum of the values for the trials with the individual applications, they also exceed the expected value according to Colby which is calculated using the following formula and which is likewise considered to be an indication of synergism (cf. S. R. Colby; in Weeds 15 (1967) pp. 20 to 22): E=A+B−(A·B/100)
Seeds or rhizome pieces of monocotyledonous and dicotyledonous weeds are placed in sandy loam soil in pots, covered with soil and grown in a greenhouse under good growth conditions (temperature, atmospheric humidity, water supply). […] The compositions according to the invention, formulated as wettable powders or as emulsion concentrates, are sprayed, at various dosages, onto the green parts of the plant at an application rate of 600 to 800 l of water/ha (converted). After the test plants have been in the greenhouse for about 3 to 4 weeks under ideal growth conditions, the effect of the preparations is scored visually by comparison with untreated controls. The compositions according to the invention also have a good herbicidal post-emergence activity against a broad spectrum of economically important weed grasses and weeds.
(§3) Frequently, activities of the combinations according to the invention are observed which exceed the formal sum of the activities when the herbicides are applied individually.

[3] = tested on: Eleusine indica (ELEIN); assay: Herbicidal effect in rice, field trial, Eleusine indica; conditions: Table 4 field trial, post-emergence 2-4-leaf stage, scoring 28 days after application
Method: as §1, §2
(§4) Crop plants were grown outdoors on plots under natural outdoor conditions, and seeds or rhizome pieces of typical harmful plants were laid out or the natural weed growth was utilized. Treatment with the compositions according to the invention was carried out after the harmful plants had emerged and the crop plants were, generally, at the 2- to 4-leaf stage; in some cases (as stated), application of individual active compounds or active compound combinations was carried out pre-emergence (cf. Example 1) or as a sequential treatment partly pre-emergence and/or post-emergence.
(§5) After the application, for example 2, 4, 6 and 8 weeks after the application, the effect of the preparations was scored visually by comparison with untreated controls (cf. scoring in Example 1). In the field trial as well, the compositions according to the invention have synergistic herbicidal activity against a broad spectrum of economically important weed grasses and broad-leaved weeds. […] Moreover, the effects in essential phases of the scoring period were above the expected values according to Colby (cf. scoring in Example 1), also indicating synergism. […]

[4] = tested on: rice; assay: Selectivity: damage to rice, field trial
Method: The damage and development of all above-ground parts of the plants were recorded. […] The scores of in each case 4 plots were averaged.
Crop plants were grown outdoors on plots under natural outdoor conditions, and seeds or rhizome pieces of typical harmful plants were laid out or the natural weed growth was utilized.

[5] = tested on: Cyperus iria (CYPIR); assay: Herbicidal effect in rice, field trial, Cyperus iria; conditions: Table 14 field trial, post-emergence 3-leaf stage, scoring 42 days after application, 300 g of AS/ha
Method: as §1, §2, §4, §5

[6] = tested on: Echinochloa colona (ECHCO); assay: Herbicidal effect in rice, field trial, Echinochloa colona; conditions: post-emergence 2-4-leaf stage
Method: as §1, §2, §4
(§6) After the application, for example 2, 4, 6 and 8 weeks after the application, the effect of the preparations was scored visually by comparison with untreated controls (cf. scoring in Example 1). In the field trial as well, the compositions according to the invention have synergistic herbicidal activity against a broad spectrum of economically important weed grasses and broad-leaved weeds. […] Moreover, the effects in essential phases of the scoring period were above the expected values according to Colby (cf. scoring in Example 1), also indicating synergism. In contrast, the crop plants were, as a consequence of the treatments with the herbicidal compositions, damaged only to a small degree, if at all.

[7] = tested on: Echinochloa crus-galli (ECHCG); assay: Herbicidal effect in rice, field trial, Echinochloa crus-galli; conditions: Table 12 field trial, post-emergence 3-leaf stage, scoring 12 days after application
Method: as §1, §2, §4, §6

[8] = tested on: Echinochloa crus-galli (ECHCG); assay: Herbicidal effect in rice, greenhouse trial, Echinochloa crus-galli; conditions: Table 6 greenhouse trial, post-emergence 3-4-leaf stage, scoring 20 days after application
Method: as §1, §2
Seeds or rhizome pieces of monocotyledonous and dicotyledonous weeds are placed in sandy loam soil in pots, covered with soil and grown in a greenhouse under good growth conditions (temperature, atmospheric humidity, water supply). Three weeks after sowing, the test plants are treated at the three-leaf stage with the compositions according to the invention. The compositions according to the invention, formulated as wettable powders or as emulsion concentrates, are sprayed, at various dosages, onto the green parts of the plant at an application rate of 600 to 800 l of water/ha (converted). After the test plants have been in the greenhouse for about 3 to 4 weeks under ideal growth conditions, the effect of the preparations is scored visually by comparison with untreated controls. The compositions according to the invention also have a good herbicidal post-emergence activity against a broad spectrum of economically important weed grasses and weeds.
as §3

[9] = tested on: Ipomea hederaceae (IPOHE); assay: Herbicidal effect in rice, field trial, Ipomea hederaceae; conditions: Table 8 field trial, post-emergence 2-4-leaf stage, scoring 28 days after application, 30 g of AS/ha
Method: as §1, §2
(§7) Crop plants were grown outdoors on plots under natural outdoor conditions, and seeds or rhizome pieces of typical harmful plants were laid out or the natural weed growth was utilized. […]
(§8) After the application, for example 2, 4, 6 and 8 weeks after the application, the effect of the preparations was scored visually by comparison with untreated controls (cf. scoring in Example 1). […]

[10] = tested on: Ipomoea spp (IPOSS); assay: Herbicidal effect in rice, field trial, Ipomoea spp; conditions: Table 11 field trial, post-emergence 2-4-leaf stage, scoring 28 days after application, 45 g of AS/ha
Method: as §1, §2, §7, §8

[11] = tested on: Sesbania exaltata (SEBEX); assay: Herbicidal effect in rice, field trial, Sesbania exaltata; conditions: Table 1 field trial, post-emergence, scoring 7 days after application, 45 g of AS/ha
Method: as §1, §2, §7, §8

[12] = tested on: Cyperus difformis (CYPDI); assay: Herbicidal effect in rice, field trial, Cyperus difformis; conditions: Table 11 field trial, post-emergence 2-4-leaf stage, scoring 28 days after application, 45 g of AS/ha
Method: as §1, §2, §7, §8

[13] = tested on: Amaranthus retroflexus (AMARE); assay: Herbicidal effect in rice, field trial, Amaranthus retroflexus; conditions: Table 1 field trial, post-emergence, scoring 7 days after application, 45 g of AS/ha
Method: as §1, §2, §4, §5

[14] = Table 6 greenhouse trial, post-emergence 3-4-leaf stage, 18 g of AS/ha
[15] = Table 6 greenhouse trial, post-emergence 3-4-leaf stage, 37 g of AS/ha
[16] = Table 6 greenhouse trial, post-emergence 3-4-leaf stage, 75 g of AS/ha

## CCN(C(=O)n1nnn(-c2ccccc2Cl)c1=O)C1CCCCC1 [(B1.15), fentrazamid]
[1]; Table 5 greenhouse trial, post-emergence 1-2-leaf stage, 25 g of AS/ha
  Damage (in %) to rice: 0%
[1]; Table 5 greenhouse trial, post-emergence 1-2-leaf stage, 50 g of AS/ha
  Damage (in %) to rice: 0%
[1]; Table 5 greenhouse trial, post-emergence 1-2-leaf stage, 100 g of AS/ha
  Damage (in %) to rice: 0%
[2]; 25 g of AS/ha
  Herbicidal effect (in %) against SAGPY: 0%
[2]; 50 g of AS/ha
  Herbicidal effect (in %) against SAGPY: 40%
[2]; 100 g of AS/ha
  Herbicidal effect (in %) against SAGPY: 80%

## CC1=C(c2ccccc2)C(=O)N(C(C)(C)c2cc(Cl)cc(Cl)c2)CO1 [(B4.26), oxaziclomefone]
[3]; 30 g of AS/ha
  Herbicidal effect (in %) against ELEIN: 0%
[3]; 60 g of AS/ha
  Herbicidal effect (in %) against ELEIN: 37%
[4]; Table 4 field trial, post-emergence 2-4-leaf stage, scoring 28 days after application, 30 g of AS/ha
  Damage (in %) to rice: 15%
[4]; Table 4 field trial, post-emergence 2-4-leaf stage, scoring 28 days after application, 60 g of AS/ha
  Damage (in %) to rice: 19%

## CC1(C)CON(Cc2ccccc2Cl)C1=O [(B4.2), clomazone]
[5]
  Herbicidal effect (in %) against CYPIR: 30%
[4]; in vivo
  Damage (in %) to rice: 0%

## CCOC(=O)[C@@H](C)Oc1ccc(Oc2nc3ccc(Cl)cc3o2)cc1 [(A1.1), fenoxaprop-P-ethyl]
[6]; Table 2 field trial, scoring 21 days after application, 45 g of AS/ha
  Herbicidal effect (in %) against ECHCO: 51%
[6]; Table 3 field trial, scoring 28 days after application, 45 g of AS/ha
  Herbicidal effect (in %) against ECHCO: 83%
[1]; Table 5 greenhouse trial, post-emergence 1-2-leaf stage, 37.5 g of AS/ha
  Damage (in %) to rice: 0%
[1]; Table 5 greenhouse trial, post-emergence 1-2-leaf stage, 75 g of AS/ha
  Damage (in %) to rice: 8%
[1]; [14]
  Damage (in %) to rice: 0%
[1]; [15]
  Damage (in %) to rice: 0%
[1]; [16]
  Damage (in %) to rice: 3%
[2]; 37.5 g of AS/ha
  Herbicidal effect (in %) against SAGPY: 0%
[2]; 75 g of AS/ha
  Herbicidal effect (in %) against SAGPY: 0%
[3]; 45 g of AS/ha
  Herbicidal effect (in %) against ELEIN: 80%
[7]; 20 g of AS/ha
  Herbicidal effect (in %) against ECHCG: 80%
[7]; 40 g of AS/ha
  Herbicidal effect (in %) against ECHCG: 95%
[7]; 80 g of AS/ha
  Herbicidal effect (in %) against ECHCG: 97%
[4]; Table 2 field trial, post-emergence 2-4-leaf stage, scoring 21 days after application, 45 g of AS/ha
  Damage (in %) to rice: 0%
[4]; Table 3 field trial, post-emergence 2-4-leaf stage, scoring 28 days after application, 45 g of AS/ha
  Damage (in %) to rice: 21%
[4]; Table 4 field trial, post-emergence 2-4-leaf stage, scoring 28 days after application, 45 g of AS/ha
  Damage (in %) to rice: 21%
[4]; Table 12 field trial, post-emergence 3-leaf stage, scoring 12 days after application, 20 g of AS/ha
  Damage (in %) to rice: 0%
[4]; Table 12 field trial, post-emergence 3-leaf stage, scoring 12 days after application, 40 g of AS/ha
  Damage (in %) to rice: 0%
[4]; Table 12 field trial, post-emergence 3-leaf stage, scoring 12 days after application, 80 g of AS/ha
  Damage (in %) to rice: 5%
[8]; 18 g of AS/ha
  Herbicidal effect (in %) against ECHCG: 15%
[8]; 37 g of AS/ha
  Herbicidal effect (in %) against ECHCG: 40%
[8]; 75 g of AS/ha
  Herbicidal effect (in %) against ECHCG: 82%

## CCC/C(=N\OCC(C)Oc1ccc(Cl)cc1)C1=C(O)CC(C2CCCSC2)CC1=O (stereo not shown) [(B1.31), clefoxidim]
[1]; [14]
  Damage (in %) to rice: 0%
[1]; [15]
  Damage (in %) to rice: 0%
[1]; [16]
  Damage (in %) to rice: 0%
[8]; 18 g of AS/ha
  Herbicidal effect (in %) against ECHCG: 0%
[8]; 37 g of AS/ha
  Herbicidal effect (in %) against ECHCG: 10%
[8]; 75 g of AS/ha
  Herbicidal effect (in %) against ECHCG: 83%

## COc1cc(OC)nc(Oc2cccc(Oc3nc(OC)cc(OC)n3)c2C(=O)ON=C(c2ccccc2)c2ccccc2)n1 [(B4.25), pyribenzoxim]
[9]
  Herbicidal effect (in %) against IPOHE: 78%
[4]; Table 8 field trial, post-emergence 2-4-leaf stage, scoring 28 days after application, 30 g of AS/ha
  Damage (in %) to rice: 0%

## oxadiargyl [(B4.9)]
[6]; Table 3 field trial, scoring 28 days after application, 25 g of AS/ha
  Herbicidal effect (in %) against ECHCO: 33%
[6]; Table 3 field trial, scoring 28 days after application, 50 g of AS/ha
  Herbicidal effect (in %) against ECHCO: 43%
[6]; Table 3 field trial, scoring 28 days after application, 100 g of AS/ha
  Herbicidal effect (in %) against ECHCO: 48%

## COc1cc(OC)nc(Oc2cccc(Oc3nc(OC)cc(OC)n3)c2C(=O)[O-])n1.[Na+] [(B4.6), bispyribac-Na]
[10]
  Herbicidal effect (in %) against IPOSS: 91%
[11]
  Herbicidal effect (%) against SEBEX: 93%
[12]
  Herbicidal effect (in %) against CYPDI: 75%
[13]
  Herbicidal effect (%) against AMARE: 93%
